Assay results published in patent US11925645B2, “Enhanced caffeinated beverage composition” (Ortho-Nutra, LLC, priority 2013, dated 2024).
Like-named read-outs stand apart in the source and are kept apart here.

What was measured:
[1] = Theacrine-caffeine interaction study: single oral dose plasma pharmacokinetics (LC-MS/MS, noncompartmental); assay type: in vivo, human
Text: Theacrine pharmacokinetics in humans has not been systematically characterized. Therefore, one purpose of this study, among others, was to determine theacrine pharmacokinetics and dose-linearity following oral administration in humans.
Eight healthy nonsmokers, including 4 men and 4 women, were recruited for the experiment.
(§1) Study Design and Procedures. […] Theacrine, administered as iTeaCrine.®, was provided by Compound Solutions (Carlsbad, Calif). […] Treatment sequence was randomized using a 4×4 Latin square. There was an approximate 1-week washout period between treatments for all subjects.
(§2) Test Visit Procedures. […] A catheter was inserted into the forearm vein for blood sampling. Duplicate measurements of resting heart rate and blood pressure were taken pre-dose and prior to each timed blood sample. In addition, respiratory rate was counted in one minute and body temperature was measured using an ear scanning thermometer (dual readings taken at each time).
All subjects were instructed to consume their usual diet throughout the study period, with the exception of the actual days of testing. During the two days prior to each test day, subjects recorded all food and drink consumed and attempted to mimic this intake for the two-day period prior to subsequent visits. Diet records were analyzed using nutrient analysis software (Food Processor SQL, version 9.9; ESHA Research, Salem, Oreg.). For the actual test days, standardized meals (meal replacement food bars [Clif “Builder's 20 g Protein Bar”] and ready-to-drink shakes [Orgain Organic Nutrition™]) were provided to the subjects after sample collection at hour 2 and hour 6 (one shake and one-half bar at each time). Subjects were also provided with adequate meal replacement bars and shakes to consume following the 8 hour sample collection. (during their time outside the lab). Each bar contained 280 calories, 10 grams of fat, 29 grams of carbohydrate, and 20 grams of protein. Each shake contained 250 calories, 7 grams of fat, 32 grams of carbohydrate, and 16 grams of protein. No food other than what was provided to the subjects was allowed during each study day, including both time spent in the lab and outside the lab. […] The subjects returned the following morning for the 24 hour blood collection, again in a 10 hour fasted state. The same volume of meal replacement bars or shakes was consumed by each subject during each visit (both in lab and outside lab).
Pharmacokinetic Study. Plasma concentration-time data were evaluated using noncompartmental methods in Phoenix WinNonlin (version 7.0; Pharsight Corporation, Mountain View, Calif) with adjustment for lag time after oral administration. The maximum concentration (Cmax), lag time (talag), and time of maximum concentration (tmax) were determined from the plasma concentration versus time data. The area under the plasma concentration-time curve from time 0 to infinity (was calculated using the trapezoidal rule extrapolated to time infinity). […] The oral clearance (CL/F) was calculated by dividing the oral dose by AUC0-∞. The apparent volume of distribution during the terminal elimination phase (Vz/F) was calculated by dividing CL/F by k. […]

[2] = Theacrine-caffeine interaction study: heart rate, blood pressure, rate pressure product, tolerability; conditions: at the doses tested, administered alone or in combination
Text: as §1, §2
Differences between treatment group values were determined for systolic blood pressure (SBP), diastolic blood pressure (DBP), rate pressure product, and heart rate. Parametric data were analyzed by paired Student's t tests of mean differences in values between treatment groups. Statistical significance was defined a priori as a 2-sided or <0.05.

[3] = Single dose theacrine, caffeine or combination: subjective feelings on 10 cm visual analog scale; assay type: in vivo, human
Experimental: Subjects rated their subjective feelings using a 10 cm visual analog scale at 30 minutes, 1, 2, 3, 4, and 5 hours post ingestion and performed the trail making test (TMT) of cognitive performance at baseline and at hours 2 and 4 post ingestion.

[4] = Fourteen day study of repetitive dosing of theacrine and caffeine: psychometric indices; assay type: in vivo, human
[5] = both sexes, human, in vivo, 150 mg
[6] = from baseline to 2 hours post-ingestion

Cn1c(=O)c2c(ncn2C)n(C)c1=O [Caffeine, caffeine, reference compound]
MRT [1, 5]: 8.4 ± 4.3 h | half-life [1, 5]: 6.2 ± 3.8 h | Vd/F ([1]; both sexes, human, in vivo, 150 mg, Vd/F): 33.5 ± 13.7 L | dose-adjusted Cmax ([1]; both sexes, human, in vivo, po, 150 mg): 33.4 ± 9.5 ng/mL/mg | caffeine pharmacokinetics following caffeine alone or caffeine plus theacrine co-ingestion ([1]; caffeine 150 mg vs theacrine 125 mg + caffeine 150 mg): similar | AUC ([1]; human, in vivo, 150 mg): 262.0 ± 74.1 ng·h/mL/mg | CL/F ([1]; human, in vivo, 150 mg): 4.1 ± 1.1 L/h | effect on baseline hemodynamic parameters, e.g. heart rate and blood pressure [2]: no effect | self-reported motivation to exercise ([3]; caffeine 150 mg, 125 mg theacrine and 150 mg caffeine): significantly increased | motivation to exercise [3, 6]: significantly increased | sense of energy [3, 6]: significantly increased | subjective focus [3, 6]: significant increase | anxiety [4]: increased anxiety scores | psychometric indices of energy, focus, concentration, motivation and mood [4]: decreasing levels of energy, focus and concentration by Day 5

Cn1c(=O)[nH]c2ncn(C)c2c1=O [Paraxanthine, paraxanthine]
Tmax ([1]; both sexes, human, plasma, oral, 150 mg): 5 h | dose-adjusted Cmax ([1]; both sexes, human, plasma, oral, 150 mg, paraxanthine in plasma, Condition 3: Caffeine 150 mg, dose-adjusted, mean ± SD): 7.3 ± 1.5 ng/mL/mg | MRT ([1]; both sexes, human, plasma, oral, 150 mg, read-out: MRT): 19.1 ± 18.6 h | half-life ([1]; both sexes, human, plasma, oral, 150 mg, read-out: t1/2 (converted)): 12.5 ± 12.7 h | dose-adjusted Cmax ([1]; both sexes, human, plasma, oral, paraxanthine in plasma, Condition 4: Theacrine 125 mg + Caffeine 150 mg, dose-adjusted, mean ± SD): 8.4 ± 3.5 ng/mL/mg | AUC ([1]; paraxanthine in plasma, Condition 3: Caffeine 150 mg, dose-adjusted, mean ± SD): 174 ± 152 ng·h/mL/mg | AUC ([1]; paraxanthine in plasma, Condition 4: Theacrine 125 mg + Caffeine 150 mg, dose-adjusted, mean ± SD): 209 ± 202 ng·h/mL/mg
